Source: the NIST ThermoML archive (doi:10.1021/je0497496)
Values joined by “and” are separate entries in the source; they are usually repeats but may differ in a detail not shown here. Equal entries are not always repeated.

Conditions: for mass density: buoyancy; for vapor or sublimation pressure: Closed cell (Static) method

O=C=O [carbon dioxide]
Fluid (supercritical or subcritical phases)
Conditions	mass density
233.06 K, 500.05 kPa	12.0703 kg/m3
233.06 K, 799.98 kPa	20.1488 kg/m3
233.07 K, 105.91 kPa	2.43371 kg/m3 and 2.42701 kg/m3
233.07 K, 300.07 kPa	7.05798 kg/m3
243 K, 1000.7 kPa	24.4253 kg/m3
243.01 K, 300.03 kPa	6.73594 kg/m3
243.01 K, 500.04 kPa	11.476 kg/m3
243.01 K, 800 kPa	19.0248 kg/m3
243.01 K, 1200.7 kPa	30.1422 kg/m3
243.02 K, 100.02 kPa	2.20055 kg/m3
253.21 K, 500.06 kPa	10.9367 kg/m3
253.21 K, 1500.7 kPa	36.7146 kg/m3
253.22 K, 100.07 kPa	2.116 kg/m3
253.22 K, 100.08 kPa	2.11111 kg/m3
253.22 K, 1000.1 kPa	23.0281 kg/m3
253.22 K, 1800.9 kPa	45.9785 kg/m3
263.31 K, 1000.6 kPa	21.8592 kg/m3
263.32 K, 500.07 kPa	10.4541 kg/m3
263.32 K, 1500.1 kPa	34.4562 kg/m3
263.32 K, 2000.2 kPa	48.7144 kg/m3
263.32 K, 2200.2 kPa	55.0401 kg/m3
263.32 K, 2500 kPa	65.4007 kg/m3
263.33 K, 100.03 kPa	2.02538 kg/m3
273.56 K, 100.01 kPa	1.94808 kg/m3
273.56 K, 100.02 kPa	1.95635 kg/m3
273.56 K, 500.01 kPa	10.0139 kg/m3
273.56 K, 1000 kPa	20.7952 kg/m3
273.56 K, 2000.3 kPa	45.5031 kg/m3
273.56 K, 2500.6 kPa	60.111 kg/m3
273.56 K, 3000 kPa	77.0441 kg/m3
273.56 K, 3200.5 kPa	84.7746 kg/m3
273.56 K, 3401.2 kPa	93.2811 kg/m3
283.51 K, 3000.3 kPa	70.8325 kg/m3
283.51 K, 4000.8 kPa	107.963 kg/m3
283.52 K, 100.06 kPa	1.8788 kg/m3
283.52 K, 999.98 kPa	19.8874 kg/m3
283.52 K, 2000 kPa	42.914 kg/m3
283.52 K, 4200.9 kPa	117.472 kg/m3
293.08 K, 100.15 kPa	1.81243 kg/m3
293.08 K, 100.16 kPa	1.8183 kg/m3
293.08 K, 2000 kPa	40.7832 kg/m3
293.08 K, 3000.4 kPa	66.2045 kg/m3
293.08 K, 4000.2 kPa	97.5691 kg/m3
293.08 K, 5000.2 kPa	140.798 kg/m3
293.08 K, 5501.3 kPa	173.325 kg/m3
293.09 K, 1000.2 kPa	19.1053 kg/m3

Liquid
Conditions	mass density	vapor or sublimation pressure
233.07 K	1116.54 kg/m3 and 1116.44 kg/m3	1000.7 kPa and 1000.8 kPa
243.01 K	1076.52 kg/m3	1420.4 kPa and 1420.5 kPa
253.22 K	1031.59 kg/m3 and 1031.49 kg/m3	1974.2 kPa and 1974.5 kPa
263.31 K	981.93 kg/m3	2661.6 kPa
263.32 K	981.93 kg/m3	2661.9 kPa
273.55 K	924.89 kg/m3	3522.1 kPa
273.56 K	924.87 kg/m3	3522.4 kPa
283.51 K	858.57 kg/m3	4543.2 kPa
283.52 K	858.55 kg/m3	4543.6 kPa
293.08 K	774.28 kg/m3	5720.9 kPa
293.09 K	774.23 kg/m3	5721.4 kPa

N#N [nitrogen]
Fluid (supercritical or subcritical phases)
Conditions	mass density [kg/m3]
233.02 K, 506.32 kPa	7.36302
233.02 K, 1007.1 kPa	14.7253
233.02 K, 2000.9 kPa	29.5563
233.02 K, 3001.4 kPa	44.779
233.02 K, 5030.2 kPa	76.3292
233.02 K, 5501 kPa	83.7756
233.03 K, 506.34 kPa	7.36678
233.03 K, 4002.6 kPa	60.2496
253.36 K, 3010.1 kPa	40.8167
253.36 K, 5651.9 kPa	77.5333
253.37 K, 158.12 kPa	2.1053
253.37 K, 1025.2 kPa	13.7338
253.37 K, 5051.9 kPa	69.1481
253.38 K, 158.09 kPa	2.10982
253.38 K, 2061.7 kPa	27.8018
253.38 K, 4007.1 kPa	54.5977
273.05 K, 1000.4 kPa	12.3984
273.06 K, 500.06 kPa	6.18643
273.06 K, 500.07 kPa	6.19019
273.06 K, 500.09 kPa	6.18538
273.06 K, 2000 kPa	24.878
273.06 K, 3000.1 kPa	37.4313
273.06 K, 4000 kPa	50.0451
273.06 K, 5000.4 kPa	62.6679
273.06 K, 5500 kPa	68.9746
293.02 K, 5015.1 kPa	58.0251
293.03 K, 109.97 kPa	1.26716
293.03 K, 1037 kPa	11.9492
293.03 K, 2014 kPa	23.2508
293.03 K, 3106.2 kPa	35.9063
293.03 K, 3996.5 kPa	46.2267
293.03 K, 5611.3 kPa	64.8959
293.04 K, 109.35 kPa	1.25784
313.12 K, 508.1 kPa	5.46882
313.12 K, 508.11 kPa	5.46814
313.12 K, 1000.3 kPa	10.7709
313.12 K, 1999.8 kPa	21.5387
313.12 K, 3999.9 kPa	43.0379
313.12 K, 5000.1 kPa	53.7535
313.13 K, 2999.7 kPa	32.2955
313.13 K, 5500 kPa	59.0903
333.12 K, 147.29 kPa	1.48909
333.12 K, 147.34 kPa	1.48309
333.12 K, 1049 kPa	10.6026
333.12 K, 2020.6 kPa	20.4085
333.12 K, 3039 kPa	30.6553
333.12 K, 4001.5 kPa	40.3032
333.12 K, 5029.1 kPa	50.5504
333.12 K, 5511.3 kPa	55.3242
353.31 K, 500.05 kPa	4.76148
353.31 K, 500.09 kPa	4.76373
353.31 K, 1001.8 kPa	9.53854
353.31 K, 4000.7 kPa	37.8636
353.32 K, 500.08 kPa	4.76448
353.32 K, 2000 kPa	19.0116
353.32 K, 3001.8 kPa	28.4762
353.32 K, 4999.9 kPa	47.189
353.32 K, 5500 kPa	51.8318

O [water]
Liquid
Conditions	mass density
273.62 K, 105.71 kPa	999.859 kg/m3
273.62 K, 1225.7 kPa	1000.42 kg/m3
273.63 K, 105.71 kPa	999.82 kg/m3
273.63 K, 2307.2 kPa	1001.02 kg/m3
273.63 K, 3781.6 kPa	1001.68 kg/m3
273.63 K, 4990.1 kPa	1002.27 kg/m3
292.94 K, 1063.5 kPa	998.673 kg/m3
292.94 K, 2097.6 kPa	999.18 kg/m3
292.94 K, 3109.3 kPa	999.633 kg/m3
292.94 K, 4139.9 kPa	1000.06 kg/m3 and 1000.08 kg/m3
292.95 K, 109.3 kPa	998.268 kg/m3
302.91 K, 110.01 kPa	995.77 kg/m3
302.91 K, 2049.8 kPa	996.571 kg/m3
302.91 K, 4030.1 kPa	997.451 kg/m3
302.92 K, 1005.9 kPa	996.106 kg/m3
312.96 K, 345.05 kPa	992.42 kg/m3
312.96 K, 1195.1 kPa	992.749 kg/m3
312.96 K, 2093.1 kPa	993.139 kg/m3
312.96 K, 3064.5 kPa	993.609 kg/m3
312.96 K, 4141.2 kPa	994.071 kg/m3
